The results in this text go back to PubChem BioAssay (NCI).

Test systems include HCC-2998 colon; HT29 colon; MALME-3M melanoma; MDA-MB-231 breast; NCI-H23 lung; OVCAR-4 ovarian; OVCAR-5 ovarian; SK-MEL-2 melanoma; SK-MEL-5 melanoma; NCI-H226 lung.
Experiment in all cases: DTP human tumour cell line panel, 48 h

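Cultured in 96-well plates, cells were exposed to test compound for 48 hours across five concentrations. GI50 marks 50% less growth. Definition used: TGI = concentration required for complete inhibition of growth.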 Some results are limits rather than exact numbers.

Usually TGI stands for the concentration giving total growth inhibition. Higher therefore signals less potent growth arrest. Take `CC(=O)Oc1ccc2ccc(=O)oc2c1OC(C)=O`: the total growth inhibition concentration (TGI) in the assay with HCC-2998 colon, in the assay with HT29 colon, with MALME-3M melanoma, in the assay on MDA-MB-231 breast, in the assay with NCI-H23 lung and with OVCAR-4 ovarian was greater than 100 µM in each case. The TGI was greater than 100 µM in the assay with OVCAR-5 ovarian, greater than 100 µM in the assay on SK-MEL-2 melanoma and 94.2 µM in the assay on SK-MEL-5 melanoma.
Turning to `CC1(C)CC(=O)C(C(c2cccc(O)c2O)C2C(=O)CC(C)(C)CC2=O)C(=O)C1`, the TGI in the assay on HT29 colon, in the assay on MALME-3M melanoma, in the assay with MDA-MB-231 breast, in the assay on NCI-H226 lung, in the assay on NCI-H23 lung and in the assay with OVCAR-4 ovarian was greater than 100 µM in each case. For the same compound, the concentration for total growth inhibition (TGI) with OVCAR-5 ovarian, with SK-MEL-2 melanoma and in the assay with SK-MEL-5 melanoma was greater than 100 µM each time.
`O=C(O)CNC(=O)c1ccccc1O`: the TGI in the assay on HT29 colon, in the assay on MALME-3M melanoma, with MDA-MB-231 breast, with NCI-H226 lung, with NCI-H23 lung and in the assay with OVCAR-4 ovarian was greater than 100 µM in each case. Besides, the TGI in the assay on OVCAR-5 ovarian, in the assay with SK-MEL-2 melanoma and in the assay on SK-MEL-5 melanoma was greater than 100 µM in each case.
The GI50 is the concentration that inhibits growth by half. For the compound `O=C(CCc1nnc(-c2c(Cl)cccc2Cl)o1)c1nc2ccccc2[nH]1`, the GI50 is 6.52 µM in the assay with HCC-2998 colon; 3.77 µM with HT29 colon; 13 µM with MALME-3M melanoma; 2.68 µM with MDA-MB-231 breast; 6.66 µM with NCI-H226 lung; 3.23 µM with NCI-H23 lung. The values for the GI50 in the assay on OVCAR-4 ovarian, with OVCAR-5 ovarian and in the assay on SK-MEL-5 melanoma were 5.93 µM, 7.82 µM and 2.88 µM, respectively. The concentration for total growth inhibition (TGI) came out at 32.3 µM in the assay on HCC-2998 colon; 55.1 µM with HT29 colon; 52.6 µM with MALME-3M melanoma; 42.6 µM with MDA-MB-231 breast; 31.2 µM in the assay with NCI-H226 lung; 63.2 µM with NCI-H23 lung. Also, the total growth inhibition concentration (TGI) in the assay with OVCAR-4 ovarian was greater than 100 µM; in the assay with OVCAR-5 ovarian it was greater than 100 µM; in the assay with SK-MEL-5 melanoma it was 14.9 µM.
Regarding `O=C1CSC(=S)N1c1ccc(F)cc1F`, the concentration for total growth inhibition (TGI) in the assay on HCC-2998 colon, in the assay on HT29 colon, with MALME-3M melanoma, in the assay on MDA-MB-231 breast, in the assay on NCI-H226 lung and with NCI-H23 lung was greater than 100 µM each time. In addition, the TGI in the assay on OVCAR-4 ovarian was greater than 100 µM; in the assay on SK-MEL-2 melanoma, greater than 100 µM; with SK-MEL-5 melanoma it was 54.6 µM.
For `O=C(N/N=C/c1coc2ccc(Cl)cc2c1=O)c1ccncc1`, the GI50 was 30.3 µM with HCC-2998 colon; greater than 100 µM in the assay on HT29 colon; 80.6 µM with MDA-MB-231 breast; 38.6 µM with NCI-H226 lung; 38.8 µM with NCI-H23 lung; greater than 100 µM with OVCAR-4 ovarian. Further, the GI50 in the assay with OVCAR-5 ovarian is greater than 100 µM; in the assay with SK-MEL-2 melanoma, 74.3 µM; with SK-MEL-5 melanoma, 44.8 µM. The TGI with HCC-2998 colon was 72.3 µM; with HT29 colon, greater than 100 µM; in the assay on MDA-MB-231 breast it was greater than 100 µM; in the assay on NCI-H226 lung it was greater than 100 µM; in the assay with NCI-H23 lung, greater than 100 µM; in the assay on OVCAR-4 ovarian it was greater than 100 µM. The TGI in the assay on OVCAR-5 ovarian, in the assay with SK-MEL-2 melanoma and in the assay on SK-MEL-5 melanoma was greater than 100 µM in each case.
On to `O=S(=O)(O)c1ccc(Cl)cc1.[Cd]`, for which the GI50 was greater than 100 µM with HCC-2998 colon; greater than 100 µM with HT29 colon; greater than 100 µM with MDA-MB-231 breast; greater than 100 µM with NCI-H226 lung; 23.2 µM with NCI-H23 lung; 51.9 µM with OVCAR-4 ovarian. Also, the GI50 with OVCAR-5 ovarian was greater than 100 µM; in the assay with SK-MEL-2 melanoma, 19.2 µM; in the assay on SK-MEL-5 melanoma, 4.58 µM. In addition, the TGI in the assay with HCC-2998 colon is greater than 100 µM; in the assay with HT29 colon it was greater than 100 µM; in the assay on MDA-MB-231 breast, greater than 100 µM; with NCI-H226 lung it was greater than 100 µM; with NCI-H23 lung it was 82.3 µM; in the assay on OVCAR-4 ovarian, greater than 100 µM. Besides, the total growth inhibition concentration (TGI) in the assay with OVCAR-5 ovarian is greater than 100 µM; in the assay with SK-MEL-2 melanoma it was 40.4 µM; in the assay on SK-MEL-5 melanoma, 16.9 µM.
In the case of `COc1cc(C2c3cc4c(cc3[C@H](NC(=O)c3cccs3)C3COC(=O)[C@H]23)OCO4)cc(OC)c1OC` (some centres not stated), the total growth inhibition concentration (TGI) in the assay on HCC-2998 colon was 13.2 µM; in the assay on HT29 colon, 11.2 µM; in the assay on MALME-3M melanoma, greater than 100 µM; with MDA-MB-231 breast it was 0.0128 µM; in the assay with OVCAR-5 ovarian, greater than 95.1 µM; with SK-MEL-2 melanoma, greater than 100 µM. The compound further showed a TGI in the assay with SK-MEL-5 melanoma of 0.708 µM.
Consider `COc1ccc2c(CC(=O)O)cc(=O)oc2c1`, for which the TGI in the assay with HCC-2998 colon, in the assay with HT29 colon, in the assay with MALME-3M melanoma, in the assay on MDA-MB-231 breast, in the assay on NCI-H226 lung and with NCI-H23 lung was greater than 100 µM throughout. Moreover, the concentration for total growth inhibition (TGI) in the assay on OVCAR-4 ovarian, with OVCAR-5 ovarian and in the assay with SK-MEL-5 melanoma was greater than 100 µM each time.
Regarding `O=C(/C=C/c1ccccn1)c1ccccc1O`, the GI50 in the assay on HCC-2998 colon was 1.7 µM; in the assay with HT29 colon, 2.23 µM; in the assay with MDA-MB-231 breast it was 2.8 µM; in the assay on NCI-H226 lung it was 2.18 µM; in the assay with NCI-H23 lung, 2.35 µM; in the assay on OVCAR-4 ovarian, 2.98 µM. Besides, the GI50 in the assay on OVCAR-5 ovarian is 2.43 µM; in the assay with SK-MEL-2 melanoma it was 2.31 µM; in the assay on SK-MEL-5 melanoma, 3.95 µM. Also, the TGI in the assay on HCC-2998 colon is 3.07 µM; with HT29 colon it was 4.84 µM; in the assay with MDA-MB-231 breast, 7.5 µM; in the assay on NCI-H226 lung, 6.23 µM; in the assay on NCI-H23 lung, 8.76 µM; in the assay with OVCAR-4 ovarian, 8.84 µM. Moreover, the figures for the TGI in the assay on OVCAR-5 ovarian, in the assay on SK-MEL-2 melanoma and in the assay on SK-MEL-5 melanoma were 6.8 µM, 4.88 µM and 14.1 µM, respectively.
Regarding `O=C(CCCCCCC(=O)N/N=C/c1ccc(N(c2ccccc2)c2ccccc2)cc1)NO`, the GI50 in the assay on HCC-2998 colon was 2.87 µM; in the assay with HT29 colon it was 2.26 µM; in the assay on MALME-3M melanoma it was 3.25 µM; in the assay on MDA-MB-231 breast, 3.37 µM; in the assay on NCI-H23 lung it was 2.41 µM; in the assay with OVCAR-4 ovarian, 1.65 µM. The values for the GI50 in the assay on OVCAR-5 ovarian, with SK-MEL-2 melanoma and in the assay with SK-MEL-5 melanoma were 0.417 µM, 2.71 µM and 1.76 µM, respectively. Besides, the TGI with HCC-2998 colon turned out to be 11.2 µM; with HT29 colon, 6.76 µM; in the assay with MALME-3M melanoma it was 15 µM; in the assay on MDA-MB-231 breast, 12.2 µM; in the assay with NCI-H23 lung, 10.7 µM; with OVCAR-4 ovarian it was 8.72 µM. In addition, the TGI was determined as 2.94 µM in the assay on OVCAR-5 ovarian, 7.81 µM in the assay with SK-MEL-2 melanoma and 3.63 µM in the assay with SK-MEL-5 melanoma.
